Literature values, collected in patent publication US20140329770A1, “Compositions Comprising Phytoestrogens Receptor Beta Agonists and Dietary Fibers for Chemopreventive Treatment of Sporadic Adenomatous Polyposis” (CM&D PHARMA LIMITED, priority 2011, published 2014).

Legend:
[1] = tested on: rectal ACF; details: 6-months intervention, subjects at increased risk for CRC
[2] = tested on: human SW480 CRC

Compound	Reduction in rectal ACF numbers compared with maltodextrins [1]	Tumor growth of human SW480 CRC ([2]; feeding, nu/nu mice)	Toxicity ([2]; mouse, in vivo)
CC1=C(CC(=O)O)c2cc(F)ccc2/C1=C\c1ccc([S+](C)[O-])cc1 (stereo not shown) [sulindac]	did not demonstrate significant reductions	–	–
COc1cc(C2Oc3cc([C@H]4Oc5cc(O)cc(O)c5C(=O)[C@@H]4O)ccc3OC2CO)ccc1O (stereo partly shown) [silybinin]	–	suppressed	Without any apparent toxicity
CC(C)c1c(C(=O)Nc2ccccc2)c(-c2ccccc2)c(-c2ccc(F)cc2)n1CC[C@@H](O)C[C@@H](O)CC(=O)O [atovarstastin]	did not demonstrate significant reductions	–	–
